Measurements: US5585374A, “Amide derivatives” (John Wyeth Brother, Limited, priority 1992, dated 1996)

Tests used:
5-HT1A receptor [1] = biological target: T1, 5-HT1A receptor (Rattus norvegicus, UniProt P19327); test: 5-HT1A receptor binding activity in rat hippocampal membrane homogenate
T1 construct: rat hippocampal membrane homogenate; from tissue; host or cells: rat hippocampus (membrane homogenate)
T1 sequence (P19327 1-422): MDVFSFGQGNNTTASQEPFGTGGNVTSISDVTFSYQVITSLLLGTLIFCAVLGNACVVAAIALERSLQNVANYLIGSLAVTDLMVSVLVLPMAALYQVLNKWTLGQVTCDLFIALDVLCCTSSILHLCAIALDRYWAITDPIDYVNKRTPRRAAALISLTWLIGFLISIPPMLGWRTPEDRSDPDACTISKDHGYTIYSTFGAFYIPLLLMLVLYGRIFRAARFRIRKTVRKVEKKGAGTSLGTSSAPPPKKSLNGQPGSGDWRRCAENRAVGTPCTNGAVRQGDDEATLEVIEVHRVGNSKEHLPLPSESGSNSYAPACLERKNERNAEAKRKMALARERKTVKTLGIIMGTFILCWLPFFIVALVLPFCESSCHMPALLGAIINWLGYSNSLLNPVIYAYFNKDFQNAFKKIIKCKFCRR
Protocol: The compounds of the invention are tested for 5-HT1A receptor binding activity in rat hippocampal membrane homogenate by the method of B S Alexander and M D Wood, J Pharm Pharmacol, 1988, 40, 888-891.

α1 sites = test: affinity for α1 sites (procedure of Marrow et al.); type: binding
5-HT1A receptor [2] = biological target: T2, 5-HT1A receptor (Cavia porcellus, UniProt A0A286Y074); test: 5-HT1A receptor antagonism: antagonism of 5-carboxamidotryptamine in guinea-pig ileum in vitro; settings: read-out: pA2 (converted)
T2 construct: in the guinea-pig ileum in vitro; from tissue; host or cells: guinea-pig ileum
T2 sequence (A0A286Y074 1-421): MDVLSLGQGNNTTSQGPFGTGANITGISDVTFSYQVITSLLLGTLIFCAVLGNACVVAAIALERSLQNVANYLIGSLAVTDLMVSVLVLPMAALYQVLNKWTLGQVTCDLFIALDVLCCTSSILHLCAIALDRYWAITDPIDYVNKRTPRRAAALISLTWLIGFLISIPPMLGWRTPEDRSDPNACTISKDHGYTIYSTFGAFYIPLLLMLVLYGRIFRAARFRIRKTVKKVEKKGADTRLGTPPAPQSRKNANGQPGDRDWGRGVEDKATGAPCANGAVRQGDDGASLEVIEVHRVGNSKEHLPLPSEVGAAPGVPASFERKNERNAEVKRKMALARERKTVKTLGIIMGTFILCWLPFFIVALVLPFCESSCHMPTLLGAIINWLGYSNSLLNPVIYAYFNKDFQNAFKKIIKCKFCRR
Protocol: The compounds are tested for 5-HT1A receptor antagonism activity in a test involving the antagonism of 5-carboxamidotryptamine in the guinea-pig ileum in vitro (based upon the procedure of Fozard et al, Br J Pharmac, 1985, 86, 601 P).

Compound	IC50 (5-HT1A receptor [1]) [nM]	IC50 (α1 sites) [nM]	Kb (5-HT1A receptor [2]) [nM]
COc1ccccc1C1CCN(CCC(C(=O)N2CCCCCC2)c2ccccc2)CC1 (single isomer, unassigned; (+)) [(+)-enantiomer]	0.2	250	1
COc1ccccc1C1CCN(CCC(C(=O)N2CCCCCC2)c2ccccc2)CC1 (stereo not drawn) [2,3,4,5,6,7-hexahydro-1-(4-(1-(1,2,3,4,5,6-hexahydro-4-(2-methoxyphenyl)pyridyl))-2-phenylbutyryl)-1H-azepine]	1.2	1080	0.794
